Measurements taken from patent US6589967B1, “Oxime O-ether compounds and fungicides for agricultural and horticultural use” (Nippon Soda Co. Ltd., priority 1999, dated 2003).

System: snap bean gray mold fungus (Botrytis cinerea)
Test: Test on Kidney Bean Gray Mold Control
Type: in vivo
Conditions: 50 ppm active ingredient, cut Kidney bean flowers (Nagauzura) dipped, spores sprayed, placed on detached leaves, 7 days at 20° C., high humidity
Method: Now, explanation is made on how the compounds according to the present invention are effective as an active ingredient of a fungicide for controlling various plant diseases with reference to Test examples described later. In the Test Examples, the control efficacy is determined by visually checking the infested state of the test plants at the time of observation, namely, checking the damage to the host plants and the developing state of the disease-causing fungus appeared on leaves, stems, etc. of the test plants, compared to the control test plants which are healthy. Flowers of Kidney bean (variety; Nagauzura) grown in a flat vessel for culturing seedlings are cut, and the cut flowers were dipped into a solution prepared by diluting the emulsifiable concentrate prepared for the compound of the present invention at a concentration of 50 ppm based on the active ingredient. After the dipping, the flowers were dried at a room temperature. Then, spore solution of snap bean gray mold fungus (Botrytis cinerea) was sprayed to the flowers. The flowers sprayed with spores of the gray mold fungus were placed on the leaves which were detached from healthy Kidney bean plants, and those leaves were placed in a room being maintained at 20° C. and high humidity with repeated lighting of 12 hours intervals, and the Kidney bean leaves were incubated in the room for 7 days. Then, the infestation degree by the fungus on the leaves was checked in comparison to the control healthy leaves to determine the control efficacy. […] Note that the compound numbers in the following correspond to the same compound numbers in the Table 1. Compound Nos. 1, 3, 6, 7, 11, 12, 13, 14, 15, 18, 20, 21, 22, 23, 25, 26, 27, 29, 36, 48, 49, 192, 194, 195, 196, 198, 201, 203, 204, 207, 208, 209, 210, 213, 216, 219, 220, 222, 223, 224, 225, 227, 228, 229, 231, 233, 234, 235, 236, 237, 239, 240, 242

SMILES	control performance (control efficacy)
COc1ccc(F)c(F)c1CON=C(C)c1cc(C)cc(C)n1 [compound 198]	excellent control performance
COc1cccc(F)c1CON=Cc1cc(C)cc(C)n1 [compound 204]	excellent control performance
COc1cccc(OC)c1CON=C(C)c1cc(C)cc(C)n1 [compound 195]	excellent control performance
COc1cccc(Cl)c1CON=C(C)c1cc(C)cc(C)n1 [compound 29]	excellent control performance
COCOc1c(C)cccc1CON=C(C)c1cc(C)cc(C)n1 [compound 194]	excellent control performance
COc1cccc(Br)c1CON=Cc1cc(C)cc(C)n1 [Compound No. 234, 4,6-Dimethyl-2-pyridinecarboxyaldehyde O-[(2-Methoxy-6-bromophenyl)methyl]oxime]	excellent control performance
COc1ccc(Cl)c(OC)c1CON=C(C)c1cc(C)cc(C)n1 [compound 3]	excellent control performance
CNc1cccc(OC)c1CON=Cc1cc(C)cc(C)n1 [Compound No. 223, 4,6-Dimethyl-2-pyridinecarboxyaldehyde O-[(2-Methoxy-6-methylaminophenyl)methyl] Oxime]	excellent control performance
COc1cc(F)c(CON=Cc2cc(C)cc(C)n2)c(OC)c1 [compound 224]	excellent control performance
COc1cc(C)cc(OC)c1CON=Cc1cc(C)cc(C)n1 [compound 208]	excellent control performance
COc1cc(C)ccc1CON=C(C)c1cc(C)cc(C)n1 [compound 15]	excellent control performance
COc1cccc(OC)c1C(C)ON=C(C)c1cc(C)cc(C)n1 (stereo not shown) [compound 11]	excellent control performance
COc1cccc(OC)c1CON=Cc1cc(C)cc(C)n1 [Compound No. 196, 4,6-Dimethyl-2-pyridinecarboxyaldehyde O-[(2,6-Dimethoxyphenyl)methyl] Oxime]	excellent control performance
COCOc1cc(C)ccc1CON=C(C)c1cc(C)cc(C)n1 [compound 192]	excellent control performance
COCc1cccc(OC)c1CON=Cc1cc(C)cc(C)n1 [compound 237]	excellent control performance
COc1cccc(OC)c1CON=Cc1cc(Cl)cc(C)n1 [Compound No. 219, 4-Chloro-6-methyl-2-pyridinecarboxyaldehyde O-[(2,6-Dimethoxyphenyl)methyl] Oxime]	excellent control performance
COc1cccc(F)c1CON=C(C)c1cc(C)cc(C)n1 [Compound No. 1, 1-(4,6-Dimethyl-2-pyridinyl)ethanone O-[(2-Fluoro-6-methoxyphenyl)methyl]oxime]	excellent control performance
COc1ccc(O)c(CON=C(C)c2cc(C)cc(C)n2)c1 [Compound No. 21]	excellent control performance
COc1cccc(OC)c1CON=Cc1cccc(C)n1 [compound 228]	excellent control performance
COCOc1cc(OC)ccc1CON=C(C)c1cc(C)cc(C)n1 [compound 6]	excellent control performance
COc1cccc(F)c1CON=Cc1cc(Cl)cc(C)n1 [compound 220]	excellent control performance
CC(=NOCc1ccc(C)cc1O)c1cc(C)cc(C)n1 [compound 49]	excellent control performance
COc1cc(C)cc(OC)c1CON=C(C)c1cc(C)cc(C)n1 [compound 209]	excellent control performance
CCc1cccc(OC)c1CON=C(C)c1cc(C)cc(C)n1 [compound 27]	excellent control performance
C#Cc1cccc(OC)c1CON=Cc1cc(C)cc(C)n1 [Compound No. 235, 4,6-Dimethyl-2-pyridinecarboxyaldehyde O-[(2-Methoxy-6-ethynylphenyl)methyl]oxime]	excellent control performance
COc1cc(Cl)cc(OC)c1CON=Cc1cc(C)cc(C)n1 [compound 213]	excellent control performance

SMILES	control performance (control efficacy)
COc1cccc(C)c1CON=C(C)c1cc(C)ccn1 [compound 36]	excellent control performance
COc1cccc(OC)c1CON=C(C)c1cc(Cl)cc(C)n1 [Compound No. 18, 1-(4-Chloro-6-methyl-2-pyridinyl)ethanone O-[(2,6-Dimethoxyphenyl)methyl] Oxime]	excellent control performance
COc1cccc(CON=C(C)c2cc(C)cc(C)n2)c1OC(C)=O [compound 207]	excellent control performance
COc1cccc(OC(C)=O)c1CON=Cc1cc(C)cc(C)n1 [compound 227]	excellent control performance
COc1ccc(Cl)c(OC)c1CON=Cc1cc(C)cc(C)n1 [compound 242]	excellent control performance
COc1ccc(F)c(OC)c1CON=Cc1cc(C)cc(C)n1 [compound 48]	excellent control performance
COc1cc(OC)c(CON=Cc2cc(C)cc(C)n2)c(OC)c1 [Compound No. 233, 4,6-Dimethyl-2-pyridinecarboxyaldehyde O-[(2,4,6-Trimethoxyphenyl)methyl]oxime]	excellent control performance
COc1cccc(OC)c1CON=Cc1cc(C)cc(C)n1.Cl [compound 236]	excellent control performance
COc1cc(F)cc(OC)c1CON=Cc1cc(C)cc(C)n1 [compound 216]	excellent control performance
COc1cccc(N)c1CON=Cc1cc(C)cc(C)n1 [Compound No. 222, 4,6-Dimethyl-2-pyridinecarboxyaldehyde O-[(2-Methoxy-6-aminophenyl)methyl] Oxime]	excellent control performance
COc1c(F)ccc(F)c1CON=C(C)c1cc(C)cc(C)n1 [compound 201]	excellent control performance
COc1ccc(CON=C(C)c2cc(C)cc(C)n2)c(O)c1 [compound 14]	excellent control performance
COc1cccc(CON=C(C)c2cc(C)cc(C)n2)c1O [Compound No. 25, 1-(4,6-Dimethyl-2-pyridinyl)ethanone O-[(2-hydroxy-3-methoxyphenyl)methyl] Oxime]	excellent control performance
COc1cccc(N(C)C)c1CON=Cc1cc(C)cc(C)n1 [Compound No. 225, 4,6-dimethyl-2-pyridinecarboxyaldehyde O-[(2-methoxy-6-dimethylaminophenyl)methyl] oxime]	excellent control performance
COc1ccc(C)c(OC)c1CON=Cc1cc(C)cc(C)n1 [compound 240]	excellent control performance
COc1cccc(C)c1CON=Cc1cc(C)cc(C)n1 [compound 203]	excellent control performance
CCC(=NOCc1c(OC)cccc1OC)c1cc(C)cc(C)n1 [Compound No. 20]	excellent control performance
C=Cc1cccc(OC)c1CON=Cc1cc(C)cc(C)n1 [compound 210]	excellent control performance
COc1cccc(C)c1CON=C(C)c1cc(C)cc(C)n1 [Compound No. 7, 1-(4,6-Dimethyl-2-pyridinyl)ethanone O-[(2-Methoxy-6-methylphenyl)methyl] Oxime]	excellent control performance
COc1ccc(OC)c(CON=C(C)c2cc(C)cc(C)n2)c1 [Compound No. 22]	excellent control performance
COc1cccc(OC)c1CON=Cc1ccccn1 [compound 231]	excellent control performance
COc1cccc(OC)c1C(C)ON=Cc1cc(C)cc(C)n1 (racemic) [compound 239]	excellent control performance
COc1cccc(OC)c1CON=Cc1cc(Br)cc(C)n1 [compound 229]	excellent control performance
COc1ccc(CON=C(C)c2cc(C)cc(C)n2)c(OC)c1 [Compound No. 13, 1-(4,6-Dimethyl-2-pyridinyl)ethanone O-[(2,4-Dimethoxyphenyl)methyl] Oxime]	excellent control performance
COc1ccc(C)cc1CON=C(C)c1cc(C)cc(C)n1 [compound 26]	excellent control performance
COCOc1ccc(OC)cc1CON=C(C)c1cc(C)cc(C)n1 [compound 12]	excellent control performance
